Earlier results, collected in US5756528A, “Inhibitors of farnesyl-protein transferase” (Merck & Co., Inc., priority 1996, dated 1998).

Tested on: farnesyl-protein transferase
Conditions: via HMG-CoA reductase inhibition, background literature

SMILES | Indirect inhibition of farnesyl-protein transferase in vivo
CC[C@H](C)C(=O)O[C@H]1CCC=C2C=C[C@H](C)[C@H](CC[C@@H]3C[C@@H](O)CC(=O)O3)[C@H]21 [compactin] | Indirect inhibition of farnesyl-protein transferase in vivo has been demonstrated
CC[C@H](C)C(=O)O[C@H]1C[C@@H](C)C=C2C=C[C@H](C)[C@H](CC[C@@H]3C[C@@H](O)CC(=O)O3)[C@H]21 [lovastatin] | Indirect inhibition of farnesyl-protein transferase in vivo has been demonstrated
